Results on three compounds are retold here after patent US9532993B2, “Aprepitant L-proline solvates—compositions and cocrystals” (priority 2011, dated 2017).

For data set [1] the following is noted: for weight loss during the initial desorption cycle: initial desorption scan 50-0.5% RH; for solid form of the product obtained after the GVS analysis (XRPD): XRPD after completion of the GVS isotherm. As for the experimental part:
Gravimetric Vapour Isotherm (GVS) Analysis: Sorption isotherms were obtained using a Hiden Isochema moisture sorption analyser (model IGAsorp), controlled by IGAsorp Systems Software V6.50.48. The sample was maintained at a constant temperature (25° C.) by the instrument controls. The humidity was controlled by mixing streams of dry and wet nitrogen, with a total flow of 250 ml·min^−1. The instrument was verified for relative humidity content by measuring three calibrated Rotronic salt solutions (10-50-80%). The weight change of the sample was monitored as a function of humidity by a microbalance (accuracy +/−0.005 mg). A defined amount of sample was placed in a tared mesh stainless steel basket under ambient conditions. The sample was loaded at 40% RH and 25° C. (typical room conditions). The sample was initially held at 50% RH for ˜80 minutes before the initial desorption cycle was commenced. A moisture sorption isotherm was acquired as outlined in Table 1 (2 scans giving 1 complete cycle). The standard isotherm was collected at a constant temperature (25° C.) and at 10% RH intervals over a 0.5-90% range (80 minutes for each humidity level). Data analysis was undertaken in Microsoft Excel.
The sample was recovered after completion of the isotherm and re-analysed by XRPD.

For data set [2] the following is noted: cited from earlier work.
The conditions of data set [3]: Class IV indicates low solubility and low permeability API; cited from earlier work.
The conditions of data set [4]: marketed nanoparticulate formulation; cited from earlier work.

Structures are written as SMILES.

Take `CCO.C[C@@H](O[C@H]1OCCN(Cc2n[nH]c(=O)[nH]2)[C@H]1c1ccc(F)cc1)c1cc(C(F)(F)F)cc(C(F)(F)F)c1.O=C(O)[C@@H]1CCCN1`: the “weight loss during the initial desorption cycle” value in data set [1] (GVS, 25° C.) is on record as 4.3%. Also, the “hygroscopicity of the obtained product” value in data set [1] (GVS, 25° C., product obtained after initial desorption) was “not hygroscopic”. In addition, in data set [1] (GVS, 25° C., product obtained after initial desorption (converted to H2O cocrystal), high relative humidity), the “water adsorbed by the obtained product at high relative humidity” value turned out to be 0.5%. Moreover, the “solid form of the product obtained after the GVS analysis (XRPD)” value in data set [1] is on record as “entirely the 1:1:1 aprepitant L-proline H2O cocrystal”.
Regarding `CCCO.C[C@@H](O[C@H]1OCCN(Cc2n[nH]c(=O)[nH]2)[C@H]1c1ccc(F)cc1)c1cc(C(F)(F)F)cc(C(F)(F)F)c1.O=C(O)[C@@H]1CCCN1`, in data set [1] (GVS, 25° C., 0.5-90% RH), the “weight loss over the total desorption-adsorption-desorption cycles” value amounted to 6.3%. Besides, in data set [1] (GVS, 25° C.), the “weight loss during the initial desorption cycle” value was 4.4%. Moreover, the “solid form of the product obtained after the GVS analysis (XRPD)” value in data set [1] is given as “entirely the 1:1:1 aprepitant L-proline H2O cocrystal”.
Turning to `C[C@@H](O[C@H]1OCCN(Cc2nc(=O)[nH][nH]2)[C@H]1c1ccc(F)cc1)c1cc(C(F)(F)F)cc(C(F)(F)F)c1` [Aprepitant], the solubility in acetonitrile entry in data set [2] (acetonitrile) was “slightly soluble”. The solubility in ethanol result in data set [2] (ethanol) was “sparingly soluble”. Besides, in data set [2] (isopropyl acetate), the “solubility in isopropyl acetate” value was “sparingly soluble”. For the same compound, in data set [2] (water), the solubility in water entry was “practically insoluble”. Further, the BCS class entry in data set [3] is recorded as “Class IV”. Moreover, the mean absolute bioavailability in data set [4] is 60-65%.
